ChEMBL document CHEMBL4725319, “Discovery of attenuation effect of orexin 1 receptor to aversion of nalfurafine: Synthesis and evaluation of D-nor-nalfurafine derivatives and analyses of the three active conformations of nalfurafine” (Bioorg Med Chem Lett, 2020)
Active and inactive are the calls of the source. The rule behind the calls is not given here.

Key:
[1] = Toxicity in dual OX1/2R knock out mouse assessed as increase in conditioned place aversion at 10 to 40 microg/kg, sc; conditions: in vivo, dose 10-40 µg/kg
[2] = Toxicity in mouse assessed as conditioned place aversion at 10 to 40 microg/kg, sc; conditions: in vivo, dose 10-40 µg/kg
[3] = Dissociation constant, pKa of compound; type: physicochemical
Mus musculus [4] = assay: Analgesic activity in OX1R knock out mouse assessed as increase in wheel running activity at 4 to 10 ug/kg; type: functional, organism-based; conditions: dose microg/kg 4-10
Mus musculus [5] = assay: Analgesic activity in OX1R knock out mouse assessed as increase in wheel running activity at 40 ug/kg; type: functional, organism-based; conditions: dose 40.0 µg/kg

## CN(C(=O)/C=C/c1ccoc1)[C@@H]1CC[C@@]2(O)[C@H]3Cc4ccc(O)c5c4[C@@]2(CCN3CC2CC2)[C@H]1O5 [NALFURAFINE]
[1]
  Activity: Toxic
[2]
  Activity: Non-Toxic
[3]
  pKa: 9.4
Mus musculus [4]
  Activity: inactive
Mus musculus [5]
  Activity: Active
